# According to patent publication US20120100204A1, “TGF-Beta Stimulating Agent Compositions and Combinations” (TCP INNOVATIONS LTD, priority 2007, published 2012):
# Marks after values point to notes of the source that are not given here.
# Legend:
# [1] = system: anti-carbohydrate antibodies; assay: anti-carbohydrate antibody isotype profile in serum of men with coronary artery disease, direct ELISA; format: in vivo, human; conditions: 3 months
# Procedure: Blood samples were also taken at baseline, immediately prior to beginning the drug treatments, and also after 90 days. The blood was drawn from the antecubital fossa using 19-gauge butterfly needles, and dispensed into polypropylene tubes, where it was allowed to clot for between 2 and 3 hours at room temperature. The clot was released, and the sample spun (450×g; 4 mins), and the serum supernatant removed, aliquoted and stored frozen at −80° C. until analysed.
# The level of anti-carbohydrate antibodies was measured by direct ELISA as previously described (Mosedale et al (2006) J. Immunol. Meth. 309:182-91). Briefly, Maxisop 96-well plates were coated with BSA-alpha-Gal (Glycorex) at 1 μg/well in 200 μl of Sodium Carbonate pH9.0 overnight at 4° C. After three quick washes with PBS, non-specific binding was blocked using 3% BSA in PBS at room temperature for 1 hour. After three further washes the serum was added at various dilutions ranging from neat to 1:100 dilution in PBS, then incubated for 2 hours at room temperature with shaking. The serum was then discarded, the plate washed 5 further times with PBS+0.1% Tween-20, and replicate strips (each containing a full range of dilutions of the same serum sample) were exposed to highly specific monoclonal antibodies to each isotype, including IgG1, IgG2, IgG3, IgG4, IgM, IgA, IgE and IgD, at 1 μg/ml in blocking buffer. After a further hour at room temperature with shaking, the antibody was discarded and the plate washed 3 further times with PBS/Tween, before being exposed to donkey anti-mouse IgG minimum cross reactivity, coupled to horseradish peroxidase (Jackson Immunoresearch), at 1 μg/ml in blocking buffer for a further 1 hour at room temperature with shaking. After a final 3 washes in PBS/Tween and single wash in PBS, 200 μl of K-blue chromogenic substrate was added to each well. After a carefully controlled period, accurate to 5 seconds, equal for all wells, the reaction was stopped by the addition of 50 μl 2M HCl and the colour read at 450 nm. Results are reported for each isotype as the mean titre (that is, the dilution of serum which yielded 50% of the maximal signal) as well as the mean signal at that titre (since the maximum absorbance in many cases was considerably below full scale deflection).
# Blood samples were also taken at baseline, immediately prior to beginning the drug treatments, and also after 90 days, and serum prepared exactly as in Example 5. The level of anti-carbohydrate antibodies was then measured by direct ELISA using the procedure given in Example 5.
# [2] = system: anti-collagen type II antibodies; assay: direct ELISA for anti-collagen type II antibodies in serum of collagen-induced arthritis mice; format: in vivo; conditions: day 39
# Procedure: Collagen-induced arthritis was induced in adult male DBA/1 mice as previously described (Courtenay et al. (1980) Nature 283:666-8). Adult (12 week old) male DBA/1 mice were divided into groups of six animals. Mice received 100 μg per mouse of bovine type II collagen (Sigma) in Freunds Complete Adjuvant (FCA) by the subcutaneous route, while a control group received an identical injection of type I collagen in FCA. Twenty-one days later, all groups of mice received an intraperitoneal booster injection containing 100 μg per mouse of the same collagen type as previously, but in the absence of adjuvant. […] Foodpad thickness was determined each day using a digital caliper EC1507 (Moore & Wright) accurate to 0.01 mm. The thickness of each footpad was determined three times on each day by a single operator blind to the treatment condition of the mouse, and the footpad thickness of each mouse on each day was reported as the mean for the three measurements for all four paws. Errors represent the standard error of the mean among the six animals in each group.
# A direct ELISA for anti-collagen type II antibodies was used as an alternative assessment of the autoimmune response. Bovine type II collagen was coated onto Maxisorp 96-well ELISA plate wells (Nunc) at 1 μg/well in 50 μl of 50 mM sodium carbonate pH9.0 for 2 hours at 4° C. Wells were blocked with 5% Tween-20/5% sucrose in phosphate-buffered saline for 1 hour at room temperature. Mouse serum at various dilutions was incubated with the collagen-coated wells for 2 hours at room temperature. After three quick washes with tris-buffered saline +0.05% Tween-20, bound murine antibody was detected using a range of different anti-mouse IgG peroxidase conjugates (Pan-IgG A-9174 Sigma Chemical Co; IgA A-4789 Sigma Chemical Company; IgG1, G2a, G2b and G3 Southern Biotechnology) at 1:5000 dilution in tris-buffered saline +0.05% Tween-20 for 1 hour at room temperature. After three further washes, bound peroxidase label was visualised with K-BLUE chromogenic substrate (Skybio, Ltd.) for 20 minutes at room temperature, and the concentration of murine anti-collagen IgG in the serum quantitated by interpolating a standard curve constructed using known concentrations of the murine monoclonal anti-collagen type II IgG, CIICI (NIH Developmental Studies Hybridoma Bank).
# [3] = Tamoxifen 20 mg once daily, aspirin 75 mg once daily, mean ± SD
# [4] = neat serum, Tamoxifen 20 mg once daily, aspirin 75 mg once daily, mean ± SD
smiles,measurement,setting,value
CC/C(=C(\c1ccccc1)c1ccc(OCCN(C)C)cc1)c1ccccc1 [Tamoxifen],"IgA titre, change versus baseline",[1]; [3],+14% ± 52%
same,"IgD titre, change versus baseline",[1]; [3],−234% ± 113%
same,"IgG2 titre, change versus baseline",[1]; [3],+176% ± 43%
same,"IgM titre, change versus baseline",[1]; [3],+16% ± 28%
same,absorbance of the IgA class anti-carbohydrate antibodies (in words),[1]; Example 6,statistically significantly increased
same,titre of IgD class anti-carbohydrate antibodies (in words),[1]; Example 6,statistically significantly reduced
same,titre of the IgG2 class anti-carbohydrate antibodies (in words),[1]; Example 6,statistically significantly increased
same,"IgA Absorbance, change versus baseline",[1]; [4],0.31 ± 0.17
same,"IgD Absorbance, change versus baseline",[1]; [4],−0.82 ± 0.51
same,"IgG2 Absorbance, change versus baseline",[1]; [4],+0.61 ± 0.17
same,"IgM Absorbance, change versus baseline",[1]; [4],−0.29 ± 0.36
same,"Pan IgG binding to bovine collagen II, median concentration in serum",[2]; DBA/1 mice with collagen-induced arthritis,181 µg/mL
same,"IgG1 binding to bovine collagen II, median absorbance",[2]; neat serum,<0.05*
same,"IgG2a binding to bovine collagen II, median absorbance",[2]; neat serum,0.081*
same,"IgG2b binding to bovine collagen II, median absorbance",[2]; neat serum,0.482*
same,"IgG3 binding to bovine collagen II, median absorbance",[2]; neat serum,0.069*
